Entries after “also recorded” stand apart in the source; their conditions may differ.
Assays:
[1] = test system: mouse psoriasis model induced by 5% IMQ; assay: Content of related inflammatory factors (ELISA) in skin of mouse psoriasis model; assay type: in vivo
Procedure: Contents of IL17, IL23, CXCL15 and myeloperoxidase (MPO) in the skin of the mouse were detected by enzyme-linked immunosorbent assay (ELISA), and ELISA kits for various inflammatory factors were all purchased from ELISA Biotechnology Co., Ltd. Specific operation steps were briefly described as follows according to instructions: 50 mg of fresh skin sample was added with 450 μL of PBS (pH=7.2 to 7.4), homogenized on ice, and centrifuged at 5000 rpm for 15 minutes, and then a supernatant was used for detection. A standard substance was diluted according to a proportion, and a blank well, a standard substance well and a well for sample to be detected were set respectively. 50 μL of standard substance was accurately loaded to an ELISA coating plate, and 40 μL of sample diluent was added into the well for sample to be detected firstly, and then added with 10 μL of sample to be detected (a final dilution concentration of the sample was 5 times). The sample was loaded to bottoms of the wells in the ELISA plate without touching walls of the wells to the greatest extent, and then shaken and mixed gently. After sealing the plate with a microplate sealer, the mixture was incubated at 37° C. for 30 minutes. A 30-times concentrated cleaning solution was diluted 30 times with distilled water for later use. The microplate sealer was carefully removed, the liquid was discarded, and the remaining was subjected to spin-drying, and the cleaning solution was fully filled into each well, stood for 30 seconds and then discarded. The steps were repeated for 5 times, and then the mixture was patted dry. 50 μL of ELISA reagent was added into each well, except for the blank well. After sealing the plate with a microplate sealer, the mixture was incubated at 37° C. for 30 minutes. The microplate sealer was carefully removed, the liquid was discarded, and the remaining was subjected to spin-drying, and the cleaning solution was fully filled into each well, stood for 30 seconds and then discarded. […] An absorbance (OD value) of each well was measured sequentially at a wavelength of 450 nm. […]

mTRPV3 = molecular target: T1, mTRPV3 (Mus musculus, UniProt Q8K424); assay: Intracellular calcium fluorescence (Fluo-4, FLIPR) in HEK-293 cells stably transfecting mTRPV3, 2-APB induced; assay type: cell-based; conditions: Scutellarein 10 μM, 2-APB 300 μM, mTRPV3-HEK-293
T1 construct: expressed in transfected cells
T1 sequence (Q8K424 1-791): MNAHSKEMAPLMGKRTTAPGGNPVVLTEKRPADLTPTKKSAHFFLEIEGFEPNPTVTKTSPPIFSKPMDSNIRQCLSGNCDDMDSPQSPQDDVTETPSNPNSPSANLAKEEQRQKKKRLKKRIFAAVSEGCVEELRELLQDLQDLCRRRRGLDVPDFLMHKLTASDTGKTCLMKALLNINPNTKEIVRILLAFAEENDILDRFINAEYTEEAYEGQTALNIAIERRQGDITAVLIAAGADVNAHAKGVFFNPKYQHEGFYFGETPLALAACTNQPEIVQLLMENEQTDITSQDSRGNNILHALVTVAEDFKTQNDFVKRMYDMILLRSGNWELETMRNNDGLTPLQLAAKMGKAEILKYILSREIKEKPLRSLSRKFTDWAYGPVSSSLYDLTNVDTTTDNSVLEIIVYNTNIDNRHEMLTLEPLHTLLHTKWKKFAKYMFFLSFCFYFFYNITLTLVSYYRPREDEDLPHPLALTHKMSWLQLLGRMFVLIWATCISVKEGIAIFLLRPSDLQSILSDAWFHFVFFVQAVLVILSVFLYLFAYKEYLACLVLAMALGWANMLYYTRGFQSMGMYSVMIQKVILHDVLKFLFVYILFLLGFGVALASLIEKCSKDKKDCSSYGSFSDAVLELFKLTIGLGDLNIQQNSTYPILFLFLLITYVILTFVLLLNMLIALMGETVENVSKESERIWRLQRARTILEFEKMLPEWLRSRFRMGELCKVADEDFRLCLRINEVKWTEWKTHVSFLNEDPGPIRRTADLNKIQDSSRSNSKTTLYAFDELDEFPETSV
Procedure: mTRPV3 plasmids were donated by Professor Jie Zheng from UC Davis. Transfection steps were as follows: HEK-293 cells with a confluence ranging from 70% to 80% and a good growth state were seeded into T-60 small dishes the day before transfection, each small dish contained 4×10^5 cells, and the cells were cultured without penicillin/streptomycin overnight at 37° C. in 5% CO2. 10 μL of plasmids (plasmid concentration was 1000 ng/μL) were diluted with 250 μl of DMEM (article number: 12800017, Gibco), and meanwhile, 10 μL of Lipofectamine 2000 (article number: 11668027, Gibco) was diluted into 250 μL of DMEM. […] Monoclone cells were selected by a limiting dilution method: the screened cells were digested and counted, and seeded into a 96-well plate in sequence at densities of 10^4 cells/well, 10^3 cells/well, 10^2 cells/well, 10 cells/well, and 1 cell/well. Under a fluorescence microscope, wells of separate cells with green fluorescence were labeled, and cells amplified from the wells were HEK-293 cells stably transfecting the mTRPV3. […] The cell plate was placed in a preheated FLIPR® ^TETRA (Molecular Devices, Sunnyvale, Calif., USA) at 30° C., and excited at a wavelength of 488 nm, and fluorescence signals were continuously recorded at a sampling frequency of 1 second at a wavelength range of 515 nm to 575 nm. […]

[2] = test system: mouse psoriasis model induced by 5% IMQ; assay: Histopathological examination (HE staining, epidermal thickness) of mouse psoriasis model under drug intervention; assay type: in vivo; conditions: subcutaneous injection, 5% IMQ model
From the text: After sacrifice of the mice, skin tissues were collected, fixed with 10% (mass fraction) paraformaldehyde solution, embedded in paraffin, and then subjected to 3 μm slicing and HE staining. An Eclipse Ti inverted microscope (Nikon Corporation, Tokyo, Japan) was used to observe and take a photo at 400-times magnification, and NIS-element BR software (Nikon Corporation, Tokyo, Japan) was used to measure an epidermal thickness of the skin. Six fields of view were randomly selected for each section. […] It should be noted that measurement data was represented by mean±standard deviation (mean±SD), and was detected by One-Way ANOVA, wherein ** represented that P<0.01, which was relative to the vaseline group.

[3] = ELISA, vs modeling mouse applied with IMQ

## O=c1cc(-c2ccc(O)cc2)oc2cc(O)c(O)c(O)c12 [Scutellarein]
[1]; 5% IMQ model
  secretion of the related inflammatory factors: obviously reduce
[1]; [3]
  content of CXCL15 in the skin: significantly lower
  content of MPO in the skin: significantly lower
mTRPV3
  inhibition of increase of intracellular calcium concentration (calcium influx) induced by 2-APB: could inhibit increase of the intracellular calcium concentration; also recorded: obvious inhibitory effect
[2]
  epidermal thickness at lesion part: significantly reduce
  pathological changes of the skin induced by imiquimod: could improve the above pathological changes

From patent US11304926B2, “Application of transient receptor potential cation channel TRPV3 in developing drug for preventing or treating psoriasis” (CHINA PHARMACEUTICAL UNIVERSITY, priority 2019, dated 2022)
